The nature of data set [1]: Phase I metabolic stability in mouse liver microsomes. The format is in vitro ADME. To be noted: for stability in mouse liver microsomes: n = 3; for remaining at 1 h, 1 µM: mouse, liver microsomes, pH 7.4, 1 h. The procedure: (§1) Stability studies were conducted in mouse liver microsomes, mouse liver tissue homogenate, and CD1 mouse plasma as previously described with minor modifications ([54][–][56]). Briefly, for Phase I mouse liver microsome stability, reactions were carried out with 200 mM potassium phosphate buffer, pH 7.4, with or without an NADPH-regenerating system (1.3 mM NADPH, 3.3 mM glucose 6-phosphate, 3.3 mM MgCl2, 0.4 U/mL glucose-6-phosphate dehydrogenase, and 50 µM sodium citrate). Reactions, in triplicate, were initiated by the addition of liver microsomes to the incubation mixture (compound final concentration was 1 µM; 0.2 mg/mL microsomes) and incubated at 37°C for the desired incubation time. For liver stability, the tissue homogenate was prepared by washing tissues with diluted 10-fold 0.1 M potassium phosphate buffer and homogenized using a probe sonicator over ice. To evaluate the stability of the drugs over time, each of the crude homogenates was aliquoted to 1 mL and then spiked with a final assay concentration of 10 µM of each drug, followed by incubation in an orbital shaker at 37°C for 1 h (in triplicate). For plasma stability, 1 mL of plasma was spiked with 10 µM of each drug, followed by incubation in an orbital shaker at 37°C for 1 h (in triplicate). Samples from each metabolism study were quenched with 3× volume of acetonitrile containing internal standard (losartan: 0.5 µM) at the desired incubation times. […] Samples were vortex-mixed for 30 s and centrifuged at 10,000 × g for 10 min at 4°C. Compound disappearance over time was monitored using a Dionex ultra-high-performance liquid chromatography system consisting of an analytical pump and an autosampler coupled with Q Exactive Focus orbitrap mass spectrometer (Thermo Fisher Scientific Inc., Waltham MA). […] The mobile phase used was composed of 0.1% formic acid in water and 0.1% formic acid in acetonitrile with gradient elution. The total run time for each analyte was 5 min.
(§2) The mass spectrometer was operated with a HESI ion source in positive ionization mode where compounds were identified in the full scan mode (from m/z 75.00–1125.00) and controlled by the Xcalibur software 4.0.27.13 (Thermo Scientific). Data were acquired using Xcalibur software. Drugs were identified in the full-scan mode (from m/z 75.00 to 1125.00) by comparing t = 0 samples with t = 30 or 60 min samples, and structures were proposed based on the accurate mass information. The percentage of compound remaining for pantothenamides 1, 6, and 7 was determined from the analyte/internal standard (IS) area ratios obtained at t = 30 or 60 min relative to the mean ratios obtained at t = 0 min and calculated using equation 1:
(§3) % Remaining=(Peak area of Analyte/Preak area of ISat t=30 or 60 min/MeanPeak area of Analyte/Peak area of ISat t=0 min)×100
Background: Liver microsomes are vesicles of endoplasmic reticulum, rich in cytochrome P450 enzymes.

A short description of data set [2]: Stability in mouse plasma. The format is in vitro ADME. To be noted: for stability in mouse plasma: n = 3. As for the experimental part: as §1, §2, §3
The subject of data set [3] is UPEC strain CFT073. Description: Checkerboard analysis of BAP with pantothenamide in pooled human urine. The format is cell-based, Escherichia coli. To be noted: combination with BAP, UPEC in urine batch B. The procedure: As previously described ([7]), an inoculum of 10^5 CFU/mL CFT073 was prepared in pooled human urine Batch B (described above). Cells (100 µL) were added 1:1 to a 96-well plate containing varied combinations of BAP and 1 or N5-Pan analog at 2× the final concentration (100 µL). The OD600 was recorded at 37°C for 16 h with intermittent shaking. Fractional growth was calculated relative to the no drug control at 6 h. Experiments were performed in biological triplicate.
Fractional inhibitory concentration indices (FICI) were determined as previously described ([7], [8]) and calculated using equation 2:
FICI=FICA+FICB=([A]/MICA)+([B]/MICB)
MICA and MICB are the lowest [A] or [B], respectively, required to suppress 90% of the bacterial growth. FICA was calculated as [A] in the presence of B for a combination resulting in <10% growth, divided by MICA. FICB was calculated as [B] in the presence of A for a combination resulting in <10% growth, divided by MICB. Isobolograms were prepared from the checkerboard analysis by plotting FIC for BAP and 1 or 6 over the range of BAP concentrations tested in combination with 1 or 6. Points falling below the line of additivity indicate potentiation of activity. See Fig. S6 for the visual representation of the method of assembling isobolograms.

Like-named read-outs stand apart in the source and are kept apart here.

For the compound `CCCCCNC(=O)CNC(=O)[C@H](O)C(C)(C)CO` [compound 6, N5-α-pantothenamide], the “% remaining in mouse liver microsomes, presence of NADPH” value in data set [1] (1 h, with NADPH, 1 µM compound, 0.2 mg/mL microsomes) is “no degradation”. Further, the “% remaining in mouse liver microsomes, absence of NADPH” value in data set [1] (1 h, without NADPH, 1 µM compound, 0.2 mg/mL microsomes) is listed as “no degradation”. In data set [1], the “stability in mouse liver microsomes” value was “good stability”. In data set [2] (1 h, 10 µM compound, 37°C), the “% remaining in mouse plasma” value is recorded as “no degradation”. In data set [2], the “stability in mouse plasma” value is listed as “good stability”. In addition, in data set [3], the “effect of BAP on activity (isobologram analysis)” value is reported as “potentiates the activity”. The “Fractional inhibitory concentration index (FICI)” value in data set [3] (range across experiments) was 0.5–1.25.
What is called amount remaining is the share of the starting amount still present when the sample was taken. `CCCCCNC(=O)CCNC(=O)[C@H](O)C(C)(C)CO` [compound 1, N-pentylpantothenamide, reference compound]: the amount remaining at 1 h, 1 µM in data set [1] (with NADPH, 1 µM compound, 0.2 mg/mL microsomes, read-out: % remaining in mouse liver microsomes, presence of NADPH) stood at 90%; in data set [1] (without NADPH, 1 µM compound, 0.2 mg/mL microsomes, read-out: % remaining in mouse liver microsomes, absence of NADPH), 93%. The “stability in mouse liver microsomes” value in data set [1] was “good stability”. The amount remaining at 1 h, 10 µM in data set [2] (CD1, mouse, plasma, 1 h, 10 µM compound, 37°C) is < 1%. Also, the “stability in mouse plasma” value in data set [2] is on record as “unstable”. In addition, in data set [3], the “effect of BAP on activity (isobologram analysis)” value is “potentiates the activity”.

For the origin of these results see PMC12323621, “Exploring the antimicrobial activity of pantothenamides against uropathogenic Escherichia coli” (Microbiology Spectrum, 2025).
